A short description of data set [1]: refractive index (Na D-line) (dimensionless). The note with it: 298.15 K; 101.33 kPa; Liquid; Standard Abbe refractometry.
For data set [2] the following is noted: Liquid; for mass density: 298.15 K, 101.33 kPa, Pycnometric method; for vapor or sublimation pressure: Ebulliometric method (Recirculating still).

The structures appear in SMILES notation. ± gives the expanded uncertainty stated by the source.

Take `CCCO` [propan-1-ol]: in data set [1], the refractive index was 1.3856 ± 0.0004. Also, the mass density in data set [2] came to 803.62 ± 0.71 kg/m3. For the same compound, the “vapor or sublimation pressure” value in data set [2] (370.27 K) is reported as 101.33 ± 1 kPa.

In the case of `CCC=O` [propanal], the refractive index in data set [1] is listed as 1.3634 ± 0.0004. In data set [2], the mass density stood at 797.21 ± 0.7 kg/m3. The “vapor or sublimation pressure” value in data set [2] (321.18 K) is 101.33 ± 1 kPa.

As to `CCC(=O)O` [propanoic acid], the refractive index in data set [1] stood at 1.3858 ± 0.0004. The mass density in data set [2] was found to be 992.86 ± 0.88 kg/m3. The “vapor or sublimation pressure” value in data set [2] (412.91 K) worked out at 101.33 ± 1 kPa.

Broadly, the refractive index is a measure of how strongly the sample bends light. A word on the mass density: it is the mass of a sample divided by its volume. Usually vapor or sublimation pressure stands for the pressure of vapour in equilibrium with the condensed phase.

Source of the values: the NIST ThermoML archive (doi:10.1021/je100912t).
